We go through 39 compounds from patent EP4001279A1, “NOVEL SPIROPYRROLIDINE DERIVED ANTIVIRAL AGENTS” (Enanta Pharmaceuticals, Inc., priority 2020, dated 2022).

One may read the EC50 as the midpoint of the concentration-response curve. High values mean lower potency in that assay, low ones higher potency in that assay.

The test system of this assay is 229E human corona virus (hCoV). The assay is described as follows: 229E live virus assay (CPE, ATPlite readout in MRC-5 cells). Format: cell-based, hCoV-229E. The conditions noted are these: Human coronavirus 229E, MRC5, hCoV-229E live virus, MOI 0.05, ATPlite readout, run in duplicate. Background: In ATP-based viability assays light output follows the ATP content of the culture.
Take `CC(C)C[C@@H](C(=O)N1C[C@]2(C[C@H]1C#N)C(=O)Nc1ccccc12)N(C)C(=O)c1ccc2ncccc2c1` [Example 210]: the EC50 was < 100 nM.
Take `CC(C)C[C@@H](C(=O)N1C[C@]2(C[C@H]1C#N)C(=O)Nc1ccccc12)N(C)C(=O)c1ccc2cc(F)ccc2c1` [Example 222]: the EC50 was < 100 nM.
For `CC(C)C[C@@H](C(=O)N1C[C@]2(C[C@H]1C#N)C(=O)Nc1ccccc12)N(C)C(=O)c1ccc(OC(F)(F)F)c(F)c1` [Example 179], the EC50 was < 100 nM.
On to `COc1cccc2[nH]c(C(=O)N(C)[C@@H](CC(C)C)C(=O)N3C[C@]4(C[C@H]3C#N)C(=O)N(C)c3ccccc34)cc12` [Example 121], for which the concentration giving a half-maximal response (EC50) was in the range of 100 to 1000 nM.
For the compound `COc1cc(C(=O)N(C)[C@@H](CC(C)C)C(=O)N2C[C@]3(C[C@H]2C#N)C(=O)Nc2ccccc23)cc2cn(C3(C)CC3)nc12` [Example 319], the EC50 was < 100 nM.
The result for `CC(C)C[C@@H](C(=O)N1C[C@]2(C[C@H]1C#N)C(=O)Nc1ccccc12)N(C)C(=O)c1cc2c(Br)ccc(Cl)c2[nH]1` [Example 66] reads < 100 nM; that for `CC(C)C[C@@H](C(=O)N1C[C@]2(C[C@H]1C#N)C(=O)Nc1ccccc12)N(C)C(=O)c1cc(OC2CC2)n2nc(C3CC3)cc2c1` [Example 315], 100 to 1000 nM; that for `CC(C)C[C@@H](C(=O)N1C[C@]2(C[C@H]1C(=O)CO)C(=O)Nc1ccccc12)N(C)C(=O)c1cc2c(F)cc(F)c(F)c2[nH]1` [Example 158], 100 to 1000 nM.
The value for `CC(C)C[C@@H](C(=O)N1C[C@]2(C[C@H]1C#N)C(=O)Nc1ccccc12)N(C)C(=O)c1cc2c(OC(F)F)cccc2[nH]1` [Example 51] was < 100 nM.
The value for `CC(C)C[C@@H](C(=O)N1C[C@]2(C[C@H]1C#N)C(=O)Nc1ccccc12)N(C)C(=O)c1nc2cc(Cl)c(Cl)cc2[nH]1` [Example 251] was < 100 nM; that for `CN(C(=O)Cc1cccc(C(F)(F)F)n1)[C@@H](CC(C)(C)F)C(=O)N1C[C@]2(C[C@H]1C#N)C(=O)Nc1ccc(Cl)cc12` [Example 485] was 100 to 1000 nM; that for `CC(C)C[C@@H](C(=O)N1C[C@]2(C[C@H]1C#N)C(=O)Nc1ccccc12)N(C)C(=O)c1nc2cc(F)ccc2[nH]1` [Example 250] was < 100 nM.
Compound `CC(C)C[C@H](NC(=O)OCc1ccccc1)C(=O)N1C[C@]2(C[C@H]1C#N)C(=O)Nc1ccccc12` [Example 1] showed an EC50 of 100 to 1000 nM.
With `COC(=O)c1ccc2c(c1)[C@@]1(C[C@@H](C#N)N(C(=O)[C@H](CC(C)C)N(C)C(=O)c3cc4c(F)cc(F)cc4[nH]3)C1)C(=O)N2` [Example 501, methyl (3R,5'S)-5'-cyano-1'-(N-(4,6-difluoro-1H-indole-2-carbonyl)-N-methyl-L-leucyl)-2-oxospiro[indoline-3,3'-pyrrolidine]-5-carboxylate], the EC50 was < 100 nM.
As to `CC(C)(C)OC(=O)NC[C@H](NC(=O)c1cc2c(F)cc(F)cc2[nH]1)C(=O)N1C[C@]2(C[C@H]1C#N)C(=O)Nc1ccccc12` [Example 128], the concentration for a half-maximal effect (EC50) is > 1000 nM.
The result for `CC(C)C[C@@H](C(=O)N1C[C@]2(C[C@H]1C#N)C(=O)Nc1ccccc12)N(C)C(=O)c1ccc(F)c(F)c1` [Example 178] reads < 100 nM; that for `CN(C(=O)C(F)(F)F)[C@@H](CC(C)(C)C)C(=O)N1C[C@]2(C[C@H]1C#N)C(=O)Nc1ccccc12` [Example 374], 100 to 1000 nM; that for `Cc1cccc(CC(=O)N(C)[C@@H](CC(C)(C)F)C(=O)N2C[C@]3(C[C@H]2C#N)C(=O)Nc2ccc(Cl)cc23)n1` [Example 487], 100 to 1000 nM.
The value for `CC(C)(C)C[C@H](NC(=O)c1cn(C2CCC2)nn1)C(=O)N1C[C@]2(C[C@H]1C#N)C(=O)Nc1ccccc12` [Example 148] was < 100 nM.
The value for `CC(C)C[C@@H](C(=O)N1C[C@]2(C[C@H]1C#N)C(=O)Nc1ccccc12)N(C)C(=O)c1ccc(F)cn1` [Example 198] was < 100 nM; that for `CC(C)C[C@@H](C(=O)N1C[C@]2(C[C@H]1C#N)C(=O)Nc1ccccc12)N(C)C(=O)c1cc2ccc(Br)cc2cn1` [Example 236] was < 100 nM; that for `CN(C(=O)c1cc2c(F)cc(F)cc2[nH]1)[C@@H](CC(C)(C)O)C(=O)N1C[C@]2(C[C@H]1C#N)C(=O)Nc1ccccc12` [Example 443] was 100 to 1000 nM.
`CC(C)C[C@@H](C(=O)N1C[C@]2(C[C@H]1C#N)C(=O)Nc1ccccc12)N(C)C(=O)c1nc2ccccc2n1C` [Example 282]: the EC50 was < 100 nM.
The value for `CC(C)C[C@@H](C(=O)N1C[C@]2(C[C@H]1C#N)C(=O)Nc1ccccc12)N(C)C(=O)c1cc2cccnc2cc1OC(F)F` [Example 253] was < 100 nM.
Regarding `CC(C)C[C@@H](C(=O)N1C[C@]2(C[C@H]1C#N)C(=O)Nc1ccccc12)N(C)C(=O)c1ccc(Cl)cc1Cl` [Example 168], the EC50 was < 100 nM.
The value for `CC(C)C[C@@H](C(=O)N1C[C@]2(C[C@H]1C(=O)C(=O)NC1CC1)C(=O)Nc1ccccc12)N(C)C(=O)c1cc2c(F)cccc2[nH]1` [Example 36] was 100 to 1000 nM; that for `CC(C)C[C@@H](C(=O)N1C[C@]2(C[C@H]1C#N)C(=O)Nc1ccccc12)N(C)C(=O)c1ccc(F)cc1Cl` [Example 61] was > 1000 nM.
The result for `CN(C(=O)OCc1ccccc1)[C@@H](CC1CC1)C(=O)N1C[C@]2(C[C@H]1C#N)C(=O)Nc1ccccc12` [Example 102] reads > 1000 nM; that for `CN(C(=O)OCc1ccccc1)[C@@H](Cc1ccccc1)C(=O)N1C[C@]2(C[C@H]1C#N)C(=O)Nc1ccccc12` [Example 41], > 1000 nM; that for `CC(C)(C)C[C@H](NC(=O)Nc1ccc2ccccc2c1)C(=O)N1C[C@]2(C[C@H]1C#N)C(=O)Nc1ccccc12` [Example 439], < 100 nM.
The result for `CC(C)(C)C[C@H](NC(=O)c1cnn(CC(F)(F)F)c1)C(=O)N1C[C@]2(C[C@H]1C#N)C(=O)Nc1ccccc12` [Example 144] reads < 100 nM.
As for `CC(C)C[C@@H](C(=O)N1C[C@]2(C[C@H]1C#N)C(=O)Nc1ccccc12)N(C)C(=O)c1cc(Cl)c2ncc(C(F)(F)F)cc2c1` [Example 240], the EC50 is < 100 nM.
Turning to `CC(C)C[C@@H](C(=O)N1C[C@]2(C[C@H]1C#N)C(=O)Nc1ccccc12)N(C)C(=O)c1cc(F)c2nc(C3CC3)c(C(=O)C(F)(F)F)n2c1` [Example 314], the half-maximal effective concentration (EC50) is < 100 nM.
As to `CC(C)C[C@@H](C(=O)N1C[C@]2(C[C@H]1C#N)C(=O)Nc1ccccc12)N(C)C(=O)c1cnccn1` [Example 200], the EC50 was < 100 nM.
The value for `CN(C(=O)c1cc2c(F)cccc2[nH]1)[C@@H](CC1CC1)C(=O)N1C[C@]2(C[C@H]1C#N)C(=O)Nc1ccccc12` [Example 116] was < 100 nM.
With `CC(C)(C)C[C@H](NC(=O)c1cn(-c2ccc(Cl)cc2)nn1)C(=O)N1C[C@]2(C[C@H]1C#N)C(=O)Nc1ccccc12` [Example 140], the EC50 is < 100 nM.
The result for `CC(C)C[C@@H](C(=O)N1C[C@]2(C[C@H]1C#N)C(=O)Nc1ccccc12)N(C)C(=O)c1cc(OC2CC2)c2ncc(C3CC3)cc2c1` [Example 324] reads 100 to 1000 nM.
The result for `CN(C(=O)[C@H](O)Cc1ccc(F)cc1)[C@@H](CC1CC1)C(=O)N1C[C@]2(C[C@H]1C#N)C(=O)Nc1ccccc12` [Example 423] reads < 100 nM.
The result for `CC(C)(C)C[C@H](NC(=O)Nc1ccccc1)C(=O)N1C[C@]2(C[C@H]1C#N)C(=O)Nc1ccccc12` [Example 435] reads < 100 nM.
